In ChEMBL document CHEMBL4800725 (2021):
Calls of active or inactive are those of the source. The calls are words filed in the database; no cut-off is given here.

How the values were obtained:
Pantetheinase [1] = biological target: T1, Pantetheinase (Homo sapiens, UniProt O95497); test: Human recombinant vanin-1 assay
T1 sequence (O95497 whole entry): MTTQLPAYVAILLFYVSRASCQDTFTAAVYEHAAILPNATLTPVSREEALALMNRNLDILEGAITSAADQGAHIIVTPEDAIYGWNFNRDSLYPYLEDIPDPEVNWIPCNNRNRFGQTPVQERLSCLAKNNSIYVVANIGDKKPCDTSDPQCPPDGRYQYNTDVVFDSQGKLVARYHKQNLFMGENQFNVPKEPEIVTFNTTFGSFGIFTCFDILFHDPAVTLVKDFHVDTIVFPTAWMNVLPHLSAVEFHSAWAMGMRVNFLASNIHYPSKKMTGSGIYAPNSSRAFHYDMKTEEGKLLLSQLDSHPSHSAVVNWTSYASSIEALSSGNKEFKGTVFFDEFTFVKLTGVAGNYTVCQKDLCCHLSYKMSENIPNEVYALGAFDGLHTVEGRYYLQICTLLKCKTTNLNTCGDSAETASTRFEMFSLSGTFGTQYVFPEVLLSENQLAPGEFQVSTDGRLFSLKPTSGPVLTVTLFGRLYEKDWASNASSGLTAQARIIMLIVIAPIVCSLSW

Pantetheinase [2] = biological target: T2, Pantetheinase (Mus musculus, UniProt Q9Z0K8); test: Mouse recombinant vanin-1 assay
T2 sequence (Q9Z0K8 whole entry): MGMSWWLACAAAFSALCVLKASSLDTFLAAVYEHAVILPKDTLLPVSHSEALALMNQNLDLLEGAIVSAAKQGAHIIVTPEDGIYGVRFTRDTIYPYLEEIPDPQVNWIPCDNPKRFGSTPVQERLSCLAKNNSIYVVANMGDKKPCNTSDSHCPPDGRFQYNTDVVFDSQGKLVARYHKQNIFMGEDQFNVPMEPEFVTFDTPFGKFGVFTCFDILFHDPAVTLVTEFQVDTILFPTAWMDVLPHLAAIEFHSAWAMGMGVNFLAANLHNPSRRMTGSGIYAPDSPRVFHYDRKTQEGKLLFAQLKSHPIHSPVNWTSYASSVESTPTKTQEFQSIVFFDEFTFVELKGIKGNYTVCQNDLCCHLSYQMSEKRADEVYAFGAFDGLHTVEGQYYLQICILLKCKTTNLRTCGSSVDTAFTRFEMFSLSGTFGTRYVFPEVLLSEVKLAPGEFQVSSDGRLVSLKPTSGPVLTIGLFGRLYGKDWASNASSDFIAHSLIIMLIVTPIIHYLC

Pantetheinase [3] = biological target: T1, Pantetheinase; test: Human plasma vanin-1 assay
Pantetheinase [4] = biological target: T2, Pantetheinase; test: Mouse plasma vanin-1 assay
Vanin 1 = biological target: T3, Vanin 1 (Rattus norvegicus, UniProt Q4KLZ0)
T3 sequence (Q4KLZ0 whole entry): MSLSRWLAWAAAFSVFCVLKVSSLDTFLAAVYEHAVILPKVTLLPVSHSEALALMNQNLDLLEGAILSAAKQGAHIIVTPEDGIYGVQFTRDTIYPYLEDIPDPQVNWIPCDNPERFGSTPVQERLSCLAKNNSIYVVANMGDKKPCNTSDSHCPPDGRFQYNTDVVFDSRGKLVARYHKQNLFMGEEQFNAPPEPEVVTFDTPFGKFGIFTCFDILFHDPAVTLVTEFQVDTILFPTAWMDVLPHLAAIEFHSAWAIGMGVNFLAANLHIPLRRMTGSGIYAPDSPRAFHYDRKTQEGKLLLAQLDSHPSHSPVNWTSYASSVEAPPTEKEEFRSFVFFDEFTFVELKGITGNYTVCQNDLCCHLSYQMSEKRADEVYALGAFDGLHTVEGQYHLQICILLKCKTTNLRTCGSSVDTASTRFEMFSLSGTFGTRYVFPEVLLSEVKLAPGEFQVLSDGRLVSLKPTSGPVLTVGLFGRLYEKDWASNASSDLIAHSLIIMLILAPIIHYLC

Cc1nc(NCc2cnccn2)ncc1C(=O)N1CCC2(CCOCC2)C1 [PFI-653-N]
IC50 (Pantetheinase [1]): 17600 nM (not active)
IC50 (Pantetheinase [2]): 15000 nM (not active)
IC50 (Pantetheinase [3]): 3000 nM (not active)
IC50 (Pantetheinase [4]): 15000 nM (not active)

O=C(c1cnc(NCc2cnccn2)nc1)N1CCC2(CCOCC2)C1 [PFI-653]
IC50 (Vanin 1): 12 nM (active)
IC50 (Pantetheinase [2]): 24.5 nM (active)
IC50 (Pantetheinase [4]): 53.4 nM (active)
